According to PMC11249646, “Small-Molecule Disruptors of the Interaction between Calcium- and Integrin-Binding Protein 1 and Integrin αIIbβ3 as Novel Antiplatelet Agents” (ACS Pharmacology & Translational Science, 2024):

molecular target: T1, CIB1 and αIIb interaction (CIB1-GST : F-αIIb peptide) (Homo sapiens, UniProt Q99828); test: FP assay, 1536-well qHTS format (primary and confirmatory screen); format: binding; conditions: Table S3, confirmatory screen, YES/NO call
T1 construct: made in house; host or cells: BL-21 plus RIL cells (E. coli)
T1 sequence (Q99828 1-191): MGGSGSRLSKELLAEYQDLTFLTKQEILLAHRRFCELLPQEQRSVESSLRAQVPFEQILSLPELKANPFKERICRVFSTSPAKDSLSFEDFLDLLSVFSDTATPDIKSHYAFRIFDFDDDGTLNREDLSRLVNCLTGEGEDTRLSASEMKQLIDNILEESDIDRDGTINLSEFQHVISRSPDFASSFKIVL

Confirm? (confirmatory screen) | SMILES
YES | COc1ccc(CC(NC(C)=O)C(=O)O)cc1 (stereo not shown) [NCGC00384987-01]

same assay, conditions: Table S3, confirmatory screen, qHTS curve class; a negative sign marks inhibitory curves

SMILES | Curve Class (confirmatory screen)
O=C(O)c1csc(-n2nc(-c3ccc(F)c(F)c3)c3cccnc32)n1 [NCGC00356667-01] | 4
NS(=O)(=O)c1ccc(Cc2cn(-c3nc(C(=O)O)cs3)nc2-c2ccc(F)c(F)c2)cc1.O=C(O)C(F)(F)F [NCGC00356753-01] | 4
CC(=O)c1c(O)cc2c(c1C)C(=O)CC(O)C2 (stereo not shown) [NCGC00380695-01] | 4
NS(=O)(=O)c1ccc(Cc2c(-c3ccc(F)c(-c4ccc(F)cc4)c3)nn(-c3nc(C(=O)O)cs3)c2C2CC2)cc1F.O=C(O)C(F)(F)F [NCGC00381623-01] | 3
Cn1cnc(-c2nccc3c(O)nc(OCCCC(F)(F)F)nc23)c1.O=C(O)C(F)(F)F [NCGC00381768-02] | 4
COc1ccc(CC(NC(C)=O)C(=O)O)cc1 (stereo not shown) [NCGC00384987-01] | -2.2

same assay, conditions: Table S3, confirmatory screen; negative = inhibition

SMILES | Efficacy (%) (confirmatory screen)
O=C(O)c1csc(-n2nc(-c3ccc(F)c(F)c3)c3cccnc32)n1 [NCGC00356667-01] | -16%
NS(=O)(=O)c1ccc(Cc2cn(-c3nc(C(=O)O)cs3)nc2-c2ccc(F)c(F)c2)cc1.O=C(O)C(F)(F)F [NCGC00356753-01] | -27%
CC(=O)c1c(O)cc2c(c1C)C(=O)CC(O)C2 (stereo not shown) [NCGC00380695-01] | -25%
NS(=O)(=O)c1ccc(Cc2c(-c3ccc(F)c(-c4ccc(F)cc4)c3)nn(-c3nc(C(=O)O)cs3)c2C2CC2)cc1F.O=C(O)C(F)(F)F [NCGC00381623-01] | 124%
Cn1cnc(-c2nccc3c(O)nc(OCCCC(F)(F)F)nc23)c1.O=C(O)C(F)(F)F [NCGC00381768-02] | -16%
COc1ccc(CC(NC(C)=O)C(=O)O)cc1 (stereo not shown) [NCGC00384987-01] | -65%

same assay, conditions: Table S3, confirmatory screen; read-out: IC50 [μM] (confirmatory screen)

IC50 | SMILES
50.1 µM | COc1ccc(CC(NC(C)=O)C(=O)O)cc1 (stereo not shown) [NCGC00384987-01]

same assay, conditions: qHTS FP screen hits, Table S2; negative = inhibition

Efficacy (%) | SMILES
-32% | O=C(O)c1csc(-n2nc(-c3ccc(F)c(F)c3)c3cccnc32)n1 [NCGC00356667-01]
-53% | CC(=O)c1c(O)cc2c(c1C)C(=O)CC(O)C2 (stereo not shown) [NCGC00380695-01]
-58% | COc1ccc(CC(NC(C)=O)C(=O)O)cc1 (stereo not shown) [NCGC00384987-01]

same assay, conditions: qHTS FP screen hits, Table S2; one class per curve where COUNT > 1; negative sign = inhibitory curve

Curve Class | SMILES
-1.2 | O=C(O)c1csc(-n2nc(-c3ccc(F)c(F)c3)c3cccnc32)n1 [NCGC00356667-01]
-2.2 | CC(=O)c1c(O)cc2c(c1C)C(=O)CC(O)C2 (stereo not shown) [NCGC00380695-01]
-2.2 | COc1ccc(CC(NC(C)=O)C(=O)O)cc1 (stereo not shown) [NCGC00384987-01]

same assay, conditions: qHTS FP screen hits, Table S2; read-out: IC50

IC50 | SMILES
3.5 µM | O=C(O)c1csc(-n2nc(-c3ccc(F)c(F)c3)c3cccnc32)n1 [NCGC00356667-01]
56.2 µM | CC(=O)c1c(O)cc2c(c1C)C(=O)CC(O)C2 (stereo not shown) [NCGC00380695-01]
56.2 µM | COc1ccc(CC(NC(C)=O)C(=O)O)cc1 (stereo not shown) [NCGC00384987-01]

same assay, conditions: qHTS primary screen hits, Table S2; negative = inhibition

SMILES | Efficacy (%)
NS(=O)(=O)c1ccc(Cc2cn(-c3nc(C(=O)O)cs3)nc2-c2ccc(F)c(F)c2)cc1.O=C(O)C(F)(F)F [NCGC00356753-01] | -29%
NS(=O)(=O)c1ccc(Cc2c(-c3ccc(F)c(-c4ccc(F)cc4)c3)nn(-c3nc(C(=O)O)cs3)c2C2CC2)cc1F.O=C(O)C(F)(F)F [NCGC00381623-01] | -25%
Cn1cnc(-c2nccc3c(O)nc(OCCCC(F)(F)F)nc23)c1.O=C(O)C(F)(F)F [NCGC00381768-02] | -25%

same assay, conditions: qHTS primary screen hits, Table S2; negative sign = inhibitory curve; several classes where COUNT > 1

SMILES | Curve Class
NS(=O)(=O)c1ccc(Cc2cn(-c3nc(C(=O)O)cs3)nc2-c2ccc(F)c(F)c2)cc1.O=C(O)C(F)(F)F [NCGC00356753-01] | -2.4
NS(=O)(=O)c1ccc(Cc2c(-c3ccc(F)c(-c4ccc(F)cc4)c3)nn(-c3nc(C(=O)O)cs3)c2C2CC2)cc1F.O=C(O)C(F)(F)F [NCGC00381623-01] | -2.4
Cn1cnc(-c2nccc3c(O)nc(OCCCC(F)(F)F)nc23)c1.O=C(O)C(F)(F)F [NCGC00381768-02] | -2.4

same assay, conditions: qHTS primary screen hits, Table S2; read-out: IC50

SMILES | IC50
NS(=O)(=O)c1ccc(Cc2cn(-c3nc(C(=O)O)cs3)nc2-c2ccc(F)c(F)c2)cc1.O=C(O)C(F)(F)F [NCGC00356753-01] | 31.6 µM
NS(=O)(=O)c1ccc(Cc2c(-c3ccc(F)c(-c4ccc(F)cc4)c3)nn(-c3nc(C(=O)O)cs3)c2C2CC2)cc1F.O=C(O)C(F)(F)F [NCGC00381623-01] | 39.8 µM
Cn1cnc(-c2nccc3c(O)nc(OCCCC(F)(F)F)nc23)c1.O=C(O)C(F)(F)F [NCGC00381768-02] | 31.6 µM

molecular target: T2, GST-CIB1 : F-scrambled peptide (Homo sapiens, UniProt Q99828); test: FP scrambled-peptide counter screen, 1536-well format; format: binding; conditions: Table S3, counterscreen, qHTS curve class; a negative sign marks inhibitory curves
T2 construct: made in house; host or cells: BL-21 plus RIL cells (E. coli)
T2 sequence (Q99828 1-191): T1 sequence (Q99828 1-191)

Curve Class (counterscreen) | SMILES
3 | O=C(O)c1csc(-n2nc(-c3ccc(F)c(F)c3)c3cccnc32)n1 [NCGC00356667-01]
-3 | CC(=O)c1c(O)cc2c(c1C)C(=O)CC(O)C2 (stereo not shown) [NCGC00380695-01]
-2.1 | COc1ccc(CC(NC(C)=O)C(=O)O)cc1 (stereo not shown) [NCGC00384987-01]

SMILES | Curve Class (counterscreen)
Cn1cnc(-c2nccc3c(O)nc(OCCCC(F)(F)F)nc23)c1.O=C(O)C(F)(F)F [NCGC00381768-02] | 4

same assay, conditions: Table S3, counterscreen; negative = inhibition

SMILES | Efficacy (%) (counterscreen)
O=C(O)c1csc(-n2nc(-c3ccc(F)c(F)c3)c3cccnc32)n1 [NCGC00356667-01] | 64%
NS(=O)(=O)c1ccc(Cc2cn(-c3nc(C(=O)O)cs3)nc2-c2ccc(F)c(F)c2)cc1.O=C(O)C(F)(F)F [NCGC00356753-01] | 54%
CC(=O)c1c(O)cc2c(c1C)C(=O)CC(O)C2 (stereo not shown) [NCGC00380695-01] | 0%
NS(=O)(=O)c1ccc(Cc2c(-c3ccc(F)c(-c4ccc(F)cc4)c3)nn(-c3nc(C(=O)O)cs3)c2C2CC2)cc1F.O=C(O)C(F)(F)F [NCGC00381623-01] | 250%
Cn1cnc(-c2nccc3c(O)nc(OCCCC(F)(F)F)nc23)c1.O=C(O)C(F)(F)F [NCGC00381768-02] | -28%
COc1ccc(CC(NC(C)=O)C(=O)O)cc1 (stereo not shown) [NCGC00384987-01] | -105%

same assay, conditions: Table S3, counterscreen; read-out: IC50 [μM] (counterscreen)

SMILES | IC50
O=C(O)c1csc(-n2nc(-c3ccc(F)c(F)c3)c3cccnc32)n1 [NCGC00356667-01] | 89.1 µM
NS(=O)(=O)c1ccc(Cc2cn(-c3nc(C(=O)O)cs3)nc2-c2ccc(F)c(F)c2)cc1.O=C(O)C(F)(F)F [NCGC00356753-01] | 56.2 µM
NS(=O)(=O)c1ccc(Cc2c(-c3ccc(F)c(-c4ccc(F)cc4)c3)nn(-c3nc(C(=O)O)cs3)c2C2CC2)cc1F.O=C(O)C(F)(F)F [NCGC00381623-01] | 79.4 µM
COc1ccc(CC(NC(C)=O)C(=O)O)cc1 (stereo not shown) [NCGC00384987-01] | 79.4 µM
